Format in all cases: cell-based
Experiment [1] concerns LS174 cells. The experiment can be described thus: Caspase 3/7 activity (Caspase-Glo 3/7). The settings on record: hypoxic cancer cells. The protocol: Quantification of the caspase 3/7 activity was done using a luciferin/luciferase based assay (Caspase-Glo 3/7 kit, Promega) according to the manufacture's instructions. Each condition was performed 8 times and the entire experiment was done 3 times. Significant differences are based on the Student's t test * p < 0.005. To test ABT-737 (Hickman et al., 2008, J Neurophysiol 99, 1515), LS 174 cells were cultured for 72 h in normoxia (N) or hypoxia 1% O2 (H 1 %) and ABT was then added for 24 h at different concentrations (0, 2 or 10 µM). Staurosporine (1 µg/ml) was added (+ Stau) 4 h prior to assay for caspase 3/7 activity, […]

The subject of experiment [2] is LS174 cells. Nature of the experiment: Flow cytometric analysis of mitochondrial transmembrane potential (ΔΨm) with DiOC6(3). The following applies: staurosporine 1 µM for 18h. On the procedure:
The following fluorochromes were employed to determine mitochondrial function by cytofluorometry: 3,3'-dihexyloxacarbocyanine iodide [DiOC6(3), 50 nM (Invitrogen) for mitochondrial transmembrane potential (ΔΨm) quantification and propidium iodide (PI; 1 µg/ml (Sigma) for determination of cell viability (all from Molecular Probes). Cells were trypsinized and labeled with the fluorochromes at 37°C, followed by cytofluorometric analysis with a fluorescence-activated cell sorter (FACS) scan (Becton Dickinson). The fluorescence intensity of DiOC6 (3) (which measures ΔΨm) is plotted against the propidium iodide signal ([…]). The CellQuest software (Becton Dickinson) was used for the data analysis.
For orientation: Flow cytometry measures light scatter and fluorescence of single cells or particles in a stream.

Experiment [3] relates to LS174 cells. The experiment can be described thus: Immunofluorescence of cytochrome c release. The settings on record: with staurosporine. On the procedure:
Cells were grown on glass coverslips and then fixed in 3.3% paraformaldehyde for 30 min at room temperature (RT), permeabilized with 0.2% Triton X-100 for 5 min. Cells were blocked with phosphate-buffered saline (PBS) containing 0.2% gelatin, 2% bovine serum albumin for 30 min at RT, and incubated with anti-rabbit HIF-1α (1/1000 - described in "Immunoblotting"), and/or anti-mouse cyto. c (1/500 - BD Bioscience) or anti-rabbit VDAC (1/400 - Abcam) antibodies in PBS for 3 h at RT. After washing, cells were incubated in the presence of a biotinylated anti-mouse secondary antibody conjugated to Alexa 594 (1:400) or anti-rabbit secondary antibody conjugated to Alexa 488 (1:400) for 1 h at RT (Invitrogen). After washing, coverslips were mounted in Cytifluor (Amersham Biosciences), detection of the fluorescence was performed with a Leica DMR fluorescence microscope, and images were recorded using RSImage software.

Data on two molecules can be found in patent EP2525224A1, “VDAC1-S as a cell marker” (Centre National de la Recherche Scientifique, priority 2011, dated 2012).

On to `COc1cc([C@@H]2c3cc4c(cc3[C@@H](O[C@@H]3O[C@@H]5CO[C@@H](C)O[C@H]5[C@H](O)[C@H]3O)[C@H]3COC(=O)[C@H]23)OCO4)cc(OC)c1O` [etoposide], for which the induced apoptosis entry in the experiment on LS174 cells [1] is “resistant”.
Take `CN[C@@H]1C[C@H]2O[C@@](C)([C@@H]1OC)n1c3ccccc3c3c4c(c5c6ccccc6n2c5c31)C(=O)NC4` [staurosporine]: the values for the ΔΨm result in the experiment on LS174 cells [2] (hypoxia 1 % O2 for 72h) and in the experiment on LS174 cells [2] (normoxia) were “remained unaffected” and “decreased”, respectively. For the same molecule, the entries for the “release of mitochondrial cytochrome c into the cytoplasm” value in the experiment with LS174 cells [3] (hypoxic cells with enlarged mitochondria) and with LS174 cells [3] (normoxia) were “do not show release of cyto. c” and “released mitochondrial cytochrome c (cyto. c) into the cytoplasm”, respectively. The induced apoptosis entry in the experiment on LS174 cells [1] is given as “resistant”.
